The results in this text go back to patent publication US20170189294A1, “Non-Irritating, Non-Whitening Photoprotective Compositions” (Eveready Battery Company, Inc., priority 2013, published 2017).

The nature of data set [1]: flame extension test. The note with it: propellant. The data set is classed as physicochemical. The protocol:
In one embodiment, the photoprotective composition concentrate and propellant are added to an aerosol container in a ratio of about 70:30 to about 60:40. The tetraflouroethane and difluoroethane propellants were tested and are non-flammable in view of the flame extension test.
In another embodiment, the photoprotective composition concentrate and propellant are added to an aerosol container in a ratio of about 70:30. The tetraflouroethane and isobutene propellants were evaluated to determine what blends of tetraflouroethane and isobutene propellants would provide a non-flammable product at a reasonable cost. […] In some embodiments having a photoprotective composition comprising a concentrate and at least one propellant, the ratio of the photoprotective composition and the propellant can be between about 2.5:1 and about 1.25:1.

Data set [2] is described as follows: solubility/compatibility and stability observations in the compositions. The data set is classed as physicochemical. The note with it: three (3) months at 40° C. The text has this:
With regard to the photoprotective compositions of the present disclosure, it was observed that high levels of isohexadecane, especially those of about 70 wt. %, limited the solubility and/or compatibility of other ingredients which cause undesirable characteristics within the entire photoprotective composition such as, i.e., hazing, oily segregation, and/or precipitation from the composition, and combinations thereof. […] Dimethicone with a viscosity of about 350 cst at a 1 wt. % concentration, for example, causes hazing.

As to `CC(F)F` [difluoroethane, 1,1-difluoroethane], the flammability entry in data set [1] is on record as “non-flammable”.
For the compound `FCC(F)(F)F` [tetraflouroethane], the flammability entry in data set [1] is “non-flammable”.
Regarding `COc1ccc(C(=O)CC(=O)c2ccc(C(C)(C)C)cc2)cc1` [avobenzone], the storage stability entry in data set [2] was “crystals appeared”.
